The assay concerns the target T1, recombinant human secreted phospholipase A2 (Homo sapiens, UniProt P14555).
T1 sequence (P14555 21-144): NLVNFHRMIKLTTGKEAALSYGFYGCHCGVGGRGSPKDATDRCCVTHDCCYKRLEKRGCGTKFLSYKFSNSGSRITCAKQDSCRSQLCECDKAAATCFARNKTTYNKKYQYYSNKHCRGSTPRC
In words: Chromogenic assay for inhibitors of recombinant human secreted phospholipase A2 (Assay Example 1). Conditions: diheptanoyl thio-PC substrate, pH 7.5, absorbance at 405 nm, triplicate. It is filed as biochemical. The text has this:
The following chromogenic assay procedure was used to identify and evaluate inhibitors of recombinant human secreted phospholipase A2. The assay described herein has been adapted for high volume screening using 96 well microtiter plates. A general description of this assay method is found in the article, “Analysis of Human Synovial Fluid Phospholipase A2 on Short Chain Phosphatidylcholine-Mixed Micelles: Development of a Spectrophotometric Assay Suitable for a Microtiterplate Reader”, by Laure J. Reynolds, Lori L. Hughes, and Edward A Dennis, Analytical Biochemistry, 204, pp. 190-197, 1992 (the disclosure of which is incorporated herein by reference):
REACTION BUFFER— • CaCl2·2H2O (1.47 g/L) • KCl (7.455 g/L) • Bovine Serum Albumin (fatty acid free) (1 g/L)(Sigma A-7030, product of Sigma Chemical Co., St. Louis Mo., USA) • TRIS HCl (3.94 g/L) • TRIS=(tris(hydroxymethyl)aminomethane) pH 7.5 (adjust with NaOH)
ENZYME BUFFER— • 0.05 NaOAc·3H2O, pH 4.5 • 0.2 NaCl • Adjust pH to 4.5 with acetic acid
DTNB— • 5,5′-dithiobis-2-nitrobenzoic acid
RACEMIC DIHEPTANOYL THIO—PC • racemic 1,2-bis(heptanoylthio)-1,2-dideoxy-sn-glycero-3-phosphorylcholine • TRITON X-100 prepare at 6.249 mg/ml in reaction buffer to equal […] • TRITON X-100 is a polyoxy ethylene non-ionic detergent supplied by Pierce Chemical Company, 3747 N. Meridian Road, Rockford, Ill. 61101.
REACTION MIXTURE— • A measured volume of racemic dipheptanoyl thio PC supplied in chloroform at a concentration of 100 mg/ml is taken to dryness and redissolved in 10 millimolar TRITON X-100 nonionic detergent aqueous solution. Reaction Buffer is added to the solution, then DTNB to give the Reaction Mixture.
The reaction mixture thus obtained contains 1 mM diheptanoly thio-PC substrate, 0.29 mm TRITON X-100 detergent, and 0.12 mm DTMB in a buffered aqueous solution at pH 7.5.
• 1. Add 0.2 ml reaction mixture to all wells; • 2. Add 10 ul test compound (or solvent blank) to appropriate wells, mix 20 seconds; • 3. Add 50 nanograms of sPLA2 (10 microliters) to appropriate wells; • 4. Incubate plate at 40° C. for 30 minutes; • 5. Read absorbance of wells at 405 nanometers with an automatic plate reader.
All compounds were tested in triplicate. Typically, compounds were tested at a final concentration of 5 ug/ml. […] Lack of color development at 405 nanometers evidenced inhibition. Compounds initially found to be active were reassayed to confirm their activity and, if sufficiently active, IC50 values were determined. […] In all cases, % inhibition measured at 405 nanometers generated by enzyme reactions containing inhibitors relative to the uninhibited control reactions was determined. Each sample was titrated in triplicate and result values were averaged for plotting and calculation of IC50 values. IC50 were determined by plotting log concentration versus inhibition values in the range from 10-90% inhibition.

Each structure is given as a SMILES string.

The record followed here is patent publication US6933313B2, “Substituted carbazoles as inhibitors of sPLA2” (Eli Lilly and Company, priority 2001, dated 2005).

Regarding `CCONC(=O)COc1cccc2c1c1c(C(N)=O)cccc1n2Cc1ccccc1` [Example 3, [[5-Carbamoyl-9-(phenylmethyl)carbazol-4-yl]oxy]-N-(ethoxy)acetamide], the IC50 (as a rule, the midpoint of a concentration-inhibition curve) amounted to 19.3 nM.

For `CON(C)C(=O)COc1cccc2c1c1c(C(N)=O)cccc1n2Cc1ccccc1` [Example 5, [[5-Carbamoyl-9-(phenylmethyl)carbazol-4-yl]oxy]-N-(methoxy)-N-(methyl)acetamide], the IC50 was found to be 42.5 nM.

For `CONC(=O)COc1cccc2c1c1c(C(N)=O)cccc1n2Cc1ccccc1` [Example 2, [[5-Carbamoyl-9-(phenylmethyl)carbazol-4-yl]oxy]-N-(methoxy)acetamide], the IC50 turned out to be 18.7 nM.

For the molecule `NC(=O)c1cccc2c1c1c(OCC(=O)NOCc3ccccc3)cccc1n2Cc1ccccc1` [Example 4, [[5-Carbamoyl-9-(phenylmethyl)carbazol-4-yl]oxy]-N-[(phenylmethyl)oxy]acetamide], the concentration for half-maximal inhibition (IC50) is 17 nM.

With `NC(=O)c1cccc2c1c1c(OCC(=O)NO)cccc1n2Cc1ccccc1` [Example 1, [[5-Carbamoyl-9-(phenylmethyl)carbazol-4-yl]oxy]-N-(hydroxy)acetamide], the 50% inhibitory concentration (IC50) was determined as 18.3 nM.

As for `NC(=O)c1cccc2c1c1c(OCC(=O)NOCc3ccccc3)cc(-c3cccs3)cc1n2Cc1ccccc1` [Example 7, [[5-Carbamoyl-9-(phenylmethyl)-2-(thien-2-yl)carbazol-4-yl]oxy]-N-[(phenylmethyl)oxy]acetamide], the IC50 came out at 29 nM.
